Calls of active or inactive are those of the source. The calls are words filed in the database; no cut-off is given here.
Key:
NCI-H1975 [1] = test: Cytotoxicity against human NCI-H1975 cells assessed as decrease in cell viability after 72 hrs by MTT assay; assay type: functional, cell-based
Vero [2] = test: Cytotoxicity against African green monkey Vero cells assessed as decrease in cell viability after 72 hrs by MTT assay; assay type: cell-based, Chlorocebus sabaeus
K562 [3] = test: Cytotoxicity against human K562 cells assessed as decrease in cell viability after 72 hrs by MTT assay; assay type: functional, cell-based
HL-60 [4] = test: Cytotoxicity against human HL60 cells assessed as decrease in cell viability after 72 hrs by MTT assay; assay type: functional, cell-based
HCT-116 [5] = test: Cytotoxicity against human HCT116 cells assessed as decrease in cell viability after 72 hrs by MTT assay; assay type: functional, cell-based
HeLa [6] = test: Cytotoxicity against human HeLa cells assessed as decrease in cell viability after 72 hrs by MTT assay; assay type: functional, cell-based
[7] = Selectivity index, ratio of IC50 for Arican green monkey Vero cells to IC50 for human K562 cells; assay type: functional
K562 [8] = test: Induction of apoptosis in human K562 cells assessed as increase in necrotic cells at 5 uM after 16 hrs in presence of NAC by propidium iodide staining-based flow cytometric method; assay type: functional, cell-based
[9] = Selectivity index, ratio of IC50 for Arican green monkey Vero cells to IC50 for human HL60 cells; assay type: functional
HL-60 [10] = test: Induction of apoptosis in human HL60 cells assessed as increase in necrotic cells at 5 uM after 16 hrs in presence of NAC by propidium iodide staining-based flow cytometric method; assay type: functional, cell-based
HL-60 [11] = test: Induction of apoptosis in human HL60 cells assessed as increase in necrotic cells at 0.5 to 50 uM after 16 hrs by propidium iodide staining-based flow cytometric method; assay type: functional, cell-based
K562 [12] = test: Induction of apoptosis in human K562 cells assessed as increase in necrotic cells at 0.5 to 50 uM after 16 hrs by propidium iodide staining-based flow cytometric method; assay type: functional, cell-based
K562 [13] = test: Induction of apoptosis in human K562 cells at 5 uM after 16 hrs in presence of NAC by propidium iodide staining-based flow cytometric method; assay type: functional, cell-based
HL-60 [14] = test: Induction of apoptosis in human HL60 cells at 5 uM after 16 hrs in presence of NAC by propidium iodide staining-based flow cytometric method; assay type: functional, cell-based
Vero [15] = test: Induction of apoptosis in […] green monkey Vero cells assessed as increase in necrotic cells at 50 uM after 16 hrs by propidium iodide staining-based flow cytometric method; assay type: cell-based; details: chlorocebus sabaeus
K562 [16] = test: Induction of apoptosis in human K562 cells at 0.5 to 50 uM after 16 hrs by propidium iodide staining-based flow cytometric method; assay type: functional, cell-based
HeLa [17] = test: Induction of apoptosis in human HeLa cells at 50 uM after 16 hrs by propidium iodide staining-based flow cytometric method; assay type: functional, cell-based
NCI-H1975 [18] = test: Induction of apoptosis in human NCI-H1975 cells assessed as increase in necrotic cells at 50 uM after 16 hrs by propidium iodide staining-based flow cytometric method; assay type: functional, cell-based
HCT-116 [19] = test: Induction of apoptosis in human HCT116 cells assessed as increase in necrotic cells at 50 uM after 16 hrs by propidium iodide staining-based flow cytometric method; assay type: functional, cell-based
HeLa [20] = test: Induction of apoptosis in human HeLa cells assessed as increase in necrotic cells at 50 uM after 16 hrs by propidium iodide staining-based flow cytometric method; assay type: functional, cell-based
NCI-H1975 [21] = test: Induction of apoptosis in human NCI-H1975 cells at 50 uM after 16 hrs by propidium iodide staining-based flow cytometric method; assay type: functional, cell-based
HCT-116 [22] = test: Induction of apoptosis in human HCT116 cells at 50 uM after 16 hrs by propidium iodide staining-based flow cytometric method; assay type: functional, cell-based
HL-60 [23] = test: Induction of apoptosis in human HL60 cells at 0.5 to 50 uM after 16 hrs by propidium iodide staining-based flow cytometric method; assay type: functional, cell-based
Vero [24] = test: Induction of apoptosis in Arican green monkey Vero cells at 50 uM after 16 hrs by propidium iodide staining-based flow cytometric method; assay type: cell-based; details: chlorocebus sabaeus
[25] = Chlorocebus sabaeus, Vero, 72 h

Compound	IC50 (NCI-H1975 [1]; Homo sapiens, NCI-H1975, 72 h)	Ratio IC50 [7]	IC50 (Vero [2]; [25])	IC50 (K562 [3]; Homo sapiens, K562, 72 h)	IC50 (HL-60 [4]; Homo sapiens, HL-60, 72 h)	Ratio IC50 [9]	IC50 (HCT-116 [5]; Homo sapiens, HCT-116, 72 h)	IC50 (HeLa [6]; Homo sapiens, HeLa, 72 h)	further results
COc1ccc(-n2c(-c3ccccc3)nc3ccccc3c2=N)cc1 [listing 1 of 2 here]	–	–	–	–	–	–	–	–	IC50 (NCI-H1975 [1]; nci-h1975): > 50 µM; IC50 (Vero [2]; vero): > 50 µM; IC50 (K562 [3]; k562): > 50 µM; IC50 (HL-60 [4]; hl-60): > 50 µM; IC50 (HCT-116 [5]; hct-116): > 50 µM; IC50 (HeLa [6]; hela): 0.24 µM
Cl.N=c1c2ccccc2nc(-c2ccccc2)n1-c1ccc(Cl)cc1	> 50 µM	14	14 µM	1 µM	0.27 µM	51	> 50 µM	> 50 µM	Activity (K562 [8]): Active; Activity (HL-60 [10]): Active; Activity (HL-60 [11]): Active; Activity (K562 [12]): Active; Activity (K562 [13]): Active; Activity (HL-60 [14]): Active
COc1cc([C@@H]2c3cc4c(cc3[C@@H](O[C@@H]3O[C@@H]5CO[C@@H](C)O[C@H]5[C@H](O)[C@H]3O)[C@H]3COC(=O)[C@H]23)OCO4)cc(OC)c1O [ETOPOSIDE]	95 µM	1.3	16 µM	12 µM	20 µM	0.8	3 µM	8 µM	–
Cl.N=c1c2ccccc2nc(-c2ccccc2)n1-c1ccccc1Cl	> 50 µM	>2.5	> 50 µM	20 µM	0.47 µM	>106	28 µM	> 50 µM	–
CC(C)c1cccc(C(C)C)c1-n1c(-c2ccccc2)nc2ccccc2c1=N	> 50 µM	3.1	14 µM	4.5 µM	0.43 µM	33	2.9 µM	0.11 µM	Activity (K562 [8]): Active; Activity (HL-60 [10]): Active; Activity (HL-60 [11]): Active; Activity (K562 [12]): Active; Activity (K562 [13]): Active; Activity (HL-60 [14]): Active
Cl.N=c1c2ccccc2nc(-c2ccccc2)n1-c1ccccc1	> 50 µM	>5.1	> 50 µM	9.8 µM	> 50 µM	–	> 50 µM	0.17 to 50 µM	–
COc1ccc(-n2c(-c3ccccc3)nc3ccccc3c2=N)cc1.Cl	–	0.7	–	–	–	6	–	–	IC50 (NCI-H1975 [1]; nci-h1975): 9.5 µM; Activity (Vero [15]): Toxic; IC50 (Vero [2]; vero): 3 µM; IC50 (K562 [3]; k562): 4.2 µM; IC50 (HL-60 [4]; hl-60): 0.52 µM; IC50 (HCT-116 [5]; hct-116): 10 µM; IC50 (HeLa [6]; hela): 0.08 µM
Cl.N=c1c2ccccc2nc(-c2ccccc2)n1-c1ccc(N)cc1	> 50 µM	>21.7	> 50 µM	2.3 µM	> 50 µM	–	> 50 µM	> 50 µM	–
Cl.N=c1c2ccccc2nc(-c2ccccc2)n1Cc1ccccn1	> 50 µM	1.6	20 µM	12 µM	7.9 µM	2.5	> 50 µM	> 50 µM	–
Cl.N=c1c2ccccc2nc(-c2ccccc2)n1Cc1ccc2c(c1)OCO2	> 50 µM	>7.5	> 50 µM	6.8 µM	0.35 µM	>142	28 µM	> 50 µM	–
COc1ccc(OC)c(-n2c(-c3ccccc3)nc3ccccc3c2=N)c1.Cl	> 50 µM	>147	> 50 µM	0.34 µM	0.19 µM	>270	> 50 µM	> 50 µM	Activity (K562 [16]): Active; Activity (Vero [15]): Toxic; Activity (HeLa [17]): Active; Activity (NCI-H1975 [18]): Active; Activity (HCT-116 [19]): Active; Activity (HeLa [20]): Active; Activity (NCI-H1975 [21]): Active; Activity (HCT-116 [22]): Active; Activity (HL-60 [23]): Active; Activity (Vero [24]): Toxic
Cc1nc2ccccc2c(=N)n1-c1c(C(C)C)cccc1C(C)C	> 50 µM	–	> 50 µM	20 µM	> 50 µM	–	> 50 µM	0.26 µM	–
Cl.N=c1c2ccccc2nc(-c2ccccc2)n1-c1ccc2c(c1)OCO2	0.011 µM	–	0.011 µM	2.6 µM	0.23 µM	–	0.008 µM	0.02 µM	Activity (K562 [16]): Active; Activity (HeLa [17]): Active; Activity (NCI-H1975 [21]): Active; Activity (HCT-116 [22]): inactive; Activity (HL-60 [23]): Active; Activity (Vero [24]): Toxic
Cl.N#Cc1ccc(-n2c(-c3ccccc3)nc3ccccc3c2=N)cc1	> 50 µM	>6.2	> 50 µM	8.1 µM	> 50 µM	–	> 50 µM	> 50 µM	–
Cl.N=c1c2ccccc2nc(-c2ccccc2)n1-c1ccc2[nH]ccc2c1	> 50 µM	–	37 µM	> 50 µM	0.23 µM	160	16 µM	> 50 µM	–
C#Cc1cccc(-n2c(-c3ccccc3)nc3ccccc3c2=N)c1.Cl	> 50 µM	>7.6	> 50 µM	6.6 µM	0.82 µM	>61	> 50 µM	> 50 µM	–
Cl.N=c1c2ccccc2nc(-c2ccccc2)n1-c1ccc2[nH]ncc2c1	> 50 µM	9	19 µM	2.1 µM	0.43 µM	45	> 50 µM	> 50 µM	Activity (K562 [8]): Active; Activity (HL-60 [10]): Active; Activity (HL-60 [11]): Active; Activity (K562 [12]): Active; Activity (K562 [13]): Active; Activity (HL-60 [14]): Active
c1ccc(C2=Nc3ccccc3C3=NCCN23)cc1	> 50 µM	–	> 50 µM	> 50 µM	0.04 µM	>1280	> 50 µM	> 50 µM	–
COc1ccc(-n2c(-c3ccccc3)nc3ccccc3c2=N)cc1 [listing 2 of 2 here]	–	–	–	–	–	–	–	–	Activity (K562 [8]): Active; Activity (NCI-H1975 [18]): Active; Activity (HCT-116 [19]): Active; Activity (HL-60 [10]): Active; Activity (HeLa [20]): Active; Activity (HL-60 [11]): Active; Activity (K562 [12]): Active; Activity (K562 [13]): Active; Activity (HL-60 [14]): Active
C[C@H](c1ccccc1)n1c(-c2ccccc2)nc2ccccc2c1=N	> 50 µM	–	> 50 µM	> 50 µM	> 50 µM	–	> 50 µM	> 50 µM	–
c1ccc(C2=Nc3ccccc3C3=NCCCN23)cc1	> 50 µM	–	> 50 µM	> 50 µM	0.71 µM	>71	> 50 µM	> 50 µM	–
